Experiment: refractive index (Na D-line) (dimensionless); xn = mol fraction of the nth substance listed
Details: 100 kPa, Liquid, Standard Abbe refractometry

CCOC(=O)CCC(=O)OCC [diethyl butanedioate] + CC(C)CO
refractive index
Details	x1 = 0.0999	x1 = 0.2	x1 = 0.3001	x1 = 0.4	x1 = 0.4999	x1 = 0.5999	x1 = 0.6999	x1 = 0.8	x1 = 0.9	x1 = 1
288.15 K	1.4016	1.4047	1.4076	1.4103	1.4127	1.4148	1.4168	1.4186	1.4203	1.4217
293.15 K	1.3995	1.4025	1.4055	1.4081	1.4105	1.4127	1.4146	1.4164	1.4181	1.4195
298.15 K	1.3974	1.4004	1.4033	1.4059	1.4083	1.4104	1.4124	1.4142	1.4159	1.4173
303.15 K	1.3952	1.3982	1.4011	1.4037	1.4061	1.4082	1.4102	1.412	1.4137	1.4151
308.15 K	1.3929	1.396	1.3989	1.4015	1.4038	1.406	1.408	1.4098	1.4115	1.4129
313.15 K	1.3908	1.3938	1.3966	1.3992	1.4016	1.4037	1.4058	1.4076	1.4093	1.4108
318.15 K	1.3886	1.3916	1.3943	1.397	1.3993	1.4015	1.4036	1.4054	1.4071	1.4088
323.15 K	1.3863	1.3894	1.3921	1.3947	1.3971	1.3993	1.4013	1.4032	1.405	1.4067
